Biological target: T1, BTK (Homo sapiens, UniProt Q06187)
T1 construct: endogenous in cells; host or cells: Mino cells
Assay: BTK degradation activity test in Mino cells
Format: cell-based
Conditions: 16 h incubation, Western blot or Elisa
Experimental: Mino cell line cells were seeded at 500,000 to 1,000,000 cells/well in a 6-well plate. The compounds were diluted to different concentrations and added to the plate, and after 16 h of incubation, cells were harvested. After lysing the cells, the total protein concentration in each well was determined using the BCA method. The amount of BTK was determined using Western blot or Elisa method. The amount of undegraded BTK protein at each drug concentration was compared with the amount of BTK protein in the blank control group to calculate the degradation rate. The degradation curve was drawn based on the degradation rate at each concentration, and the half degradation concentration (DC50) was calculated by fitting.

T1 sequence (Q06187 whole entry): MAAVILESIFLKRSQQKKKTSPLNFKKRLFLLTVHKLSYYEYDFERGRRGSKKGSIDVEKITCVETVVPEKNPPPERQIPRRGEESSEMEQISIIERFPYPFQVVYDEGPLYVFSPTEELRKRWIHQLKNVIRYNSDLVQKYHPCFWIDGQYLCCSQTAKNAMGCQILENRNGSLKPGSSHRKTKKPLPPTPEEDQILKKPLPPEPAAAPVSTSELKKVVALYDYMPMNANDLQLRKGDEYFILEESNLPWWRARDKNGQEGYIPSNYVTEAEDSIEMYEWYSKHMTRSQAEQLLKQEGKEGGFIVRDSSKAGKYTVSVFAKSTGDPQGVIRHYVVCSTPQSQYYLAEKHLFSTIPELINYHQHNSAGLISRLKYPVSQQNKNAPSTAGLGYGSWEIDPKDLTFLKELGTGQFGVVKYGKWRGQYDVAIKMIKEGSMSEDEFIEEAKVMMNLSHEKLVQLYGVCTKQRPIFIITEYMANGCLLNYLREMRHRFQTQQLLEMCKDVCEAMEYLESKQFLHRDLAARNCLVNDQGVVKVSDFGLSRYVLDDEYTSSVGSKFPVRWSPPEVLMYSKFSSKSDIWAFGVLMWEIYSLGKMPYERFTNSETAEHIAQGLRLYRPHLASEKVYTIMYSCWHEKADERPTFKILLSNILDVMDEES

SMILES	DC50 [nM]
NC(=O)c1nnc(N2CCCC(N3CCN(c4ccccc4)C3=O)C2)nc1Nc1ccc(C2CCN(C3CCN(c4ccc5c(c4)C(=O)N(C4CCC(=O)NC4=O)C5=O)CC3)CC2)cc1 (centres unmarked) [Compound 096, 5-((4-(1′-(2-(2,6-dioxopiperidin-3-yl)-1,3-dioxoisoindol-5-yl)-[1,4′-bipiperidin]-4-yl)phenyl)amino)-3-(3-(2-oxo-3-phenylimidazolin-1-yl)piperidin-1-yl)-1,2,4-triazin-6-carboxamide]	< 1
CN1CCN(C2CCCN(c3nnc(C(N)=O)c(Nc4ccc5c(c4)CCN(C4CN(c6ccc7c(c6)C(=O)N(C6CCC(=O)NC6=O)C7=O)C4)C5)n3)C2)C1=O (centres unmarked) [Compound 080]	< 1
NC(=O)c1ncc(N2CCCC(N3CCN(C4COC4)C3=O)C2)nc1Nc1ccc(N2CCC3(CC2)CCN(c2ccc4c(c2)C(=O)N(C2CCC(=O)NC2=O)C4=O)CC3)cc1 (centres unmarked) [Compound 017, 3-((4-(9-(2-(2,6-dioxopiperidin-3-yl)-1,3-dioxoisoindol-5-yl)-3,9-diazaspirocyclo[5.5]undec-3-yl)phenyl)amino)-5-(3-(3-(oxetan-3-yl)-2-oxoimidazolin-1-yl)piperidin-1-yl)pyrazin-2-carboxamide]	< 1
CN1CCN([C@@H]2CCCN(c3nnc(C(N)=O)c(Nc4ccc(N5CCN(CC6CCN(c7ccc8c(C9CCC(=O)NC9=O)nn(C)c8n7)CC6)CC5)c(F)c4)n3)C2)C1=O (stereo partly drawn) [Compound 215, 5-((4-(4-((1-(3-(2,6-dioxopiperidin-3-yl)-1-methyl-1H-pyrazolyl[3,4-b]pyridin-6-yl)piperidin-4-yl)methyl)piperazin-1-yl)-3-fluorophenyl)amino)-3-((R)-3-(3-methyl-2-oxoimidazolidin-1-yl)piperidin-1-yl)-1,2,4-triazin-6-carboxamide]	< 1
CN1CCN(C2CC3CC2N(c2nnc(C(N)=O)c(Nc4ccc(C5CCN(CC6CCN(c7cc8c(cc7F)C(=O)N(C7CCC(=O)NC7=O)C8=O)CC6)CC5)cc4)n2)C3)C1=O (centres unmarked) [Compound 111, 5-((4-(1-((1-(2-(2,6-dioxopiperidin-3-yl)-6-fluoro-1,3-dioxoisoindol-5-yl)piperidin-4-yl)methyl)piperidin-4-yl)phenyl)amino)-3-(6-(3-methyl-2-oxoimidazolin-1-yl)-2-azabicyclo[2.2.1]heptan-2-yl)-1,2,4-triazin-6-carboxamide]	< 1
NC(=O)c1ncc(N2CCCC(N3CCN(C4COC4)C3=O)C2)nc1Nc1ccc(N2CCN(CC3CN(c4ccc5c(c4)C(=O)N(C4CCC(=O)NC4=O)C5=O)C3)CC2)cc1 (centres unmarked) [Compound 016, 3-((4-(4-((1-(2-(2,6-dioxopiperidin-3-yl)-1,3-dioxoisoindol-5-yl)azetidine-3-yl)methyl)piperazin-1-yl)phenyl)amino)-5-(3-(3-(oxetan-3-yl)-2-oxoimidazolin-1-yl)piperidin-1-yl)pyrazin-2-carboxamide]	< 1
CN1CCN([C@@H]2CCCN(c3nnc(C(N)=O)c(Nc4cc(F)c5c(c4)CCN(CC4CCN(c6ccc7c(c6)C(=O)N(C6CCC(=O)NC6=O)C7=O)CC4)CC5)n3)C2)C1=O (stereo partly drawn) [Compound 231, 5-((3-((1-(2-(2,6-dioxopiperidin-3-yl)-1,3-dioxoisoindolin-5-yl)piperidin-4-yl)methyl)-9-fluoro-2,3,4,5-tetrahydro-1H-benzo[d]azepin-7-yl)amino)-3-((R)-3-(3-methyl-2-oxoimidazolidin-1-yl)piperidin-1-yl)-1,2,4-triazin-6-carboxamide]	< 1
CN1CCN([C@@H]2CCCN(c3nnc(C(N)=O)c(Nc4ccc(N5CCN(CC6CCN(c7ccc(NC8CCC(=O)NC8=O)cc7)CC6)CC5)c(F)c4)n3)C2)C1=O (stereo partly drawn) [Compound 253, 5-((4-(4-((1-(4-((2,6-dioxopiperidin-3-yl)amino)phenyl)piperidin-4-yl)methyl)piperazin-1-yl)-3-fluorophenyl)amino)-3-((R)-3-(3-methyl-2-oxoimidazolidin-1-yl)piperidin-1-yl)-1,2,4-triazin-6-carboxamide]	< 1
NC(=O)c1nnc(N2CCCC(N3CC4CCCN4C3=O)C2)nc1Nc1ccc(C2CCN(CC3CCN(c4ccc5c(c4)C(=O)N(C4CCC(=O)NC4=O)C5=O)CC3)CC2)cc1 (centres unmarked) [Compound 070, 5-((4-(1-((1-(2-(2,6-dioxopiperidin-3-yl)-1,3-dioxoisoindol-5-yl)piperidin-4-yl)methyl)piperidin-4-yl)phenyl)amino)-3-(3-(3-oxytrihydro-1H-pyrrolo[1,2-c]imidazol-2(3H)-yl)piperidin-1-yl)-1,2,4-triazin-6-carboxamide]	< 1
NC(=O)c1nnc(N2CCCC(N3CCN(C4CCCC4)C3=O)C2)nc1Nc1ccc(C2CCN(CC3CCN(c4ccc5c(c4)C(=O)N(C4CCC(=O)NC4=O)C5=O)CC3)CC2)cc1 (centres unmarked) [Compound 060, 3-(3-(3-cyclopentyl-2-oxoimidazolin-1-yl)piperidin-1-yl)-5-((4-(1-((1-(2-(2,6-dioxopiperidin-3-yl)-1,3-dioxoisoindol-5-yl)piperidin-4-yl)methyl)piperidin-4-yl)phenyl)amino)-1,2,4-triazin-6-carboxamide]	< 1
CN1CCN([C@@H]2CCCN(c3nnc(C(N)=O)c(Nc4ccc(N5CCN(CC6CCN(c7ccc(NC8CCC(=O)NC8=O)cc7F)CC6)CC5)c(F)c4)n3)C2)C1=O (some centres unmarked) [Compound 251]	< 1
Cn1c(=O)n(C2CCCN(c3cnc(C(N)=O)c(Nc4ccc(C5(C)CCN(C6CN(c7ccc8c(c7)C(=O)N(C7CCC(=O)NC7=O)C8=O)C6)CC5)cc4)n3)C2)c2ccccc21 (centres unmarked) [Compound 025, 3-((4-(1-(1-(2-(2,6-dioxopiperidin-3-yl)-1,3-dioxoisoindol-5-yl)azetidin-3-yl)-4-methylpiperidin-4-yl)phenyl)amino)-5-(3-(3-methyl-2-oxo-2,3-dihydro-1H-benzo[d]imidazol-1-yl)piperidin-1-yl)pyrazin-2-carboxamide]	< 1
NC(=O)c1nnc(N2CCCC(N3CCN(c4cccnc4)C3=O)C2)nc1Nc1ccc(C2CCN(CC3CCN(c4ccc5c(c4)C(=O)N(C4CCC(=O)NC4=O)C5=O)CC3)CC2)cc1 (centres unmarked) [Compound 067, 5-((4-(1-((1-(2-(2,6-dioxopiperidin-3-yl)-1,3-dioxoisoindol-5-yl)piperidin-4-yl)methyl)piperidin-4-yl)phenyl)amino)-3-(3-(2-oxo-3-(pyridin-3-yl)imidazolin-1-yl)piperidin-1-yl)-1,2,4-triazin-6-carboxamide]	< 1
CN1CCN([C@@H]2CCCN(c3nnc(C(N)=O)c(Nc4ccc(N5CCN(CC6CCN(c7ccc(N8CCC(=O)NC8=O)c8c7OCCO8)CC6)CC5)c(F)c4)n3)C2)C1=O [Compound 193, (R)-5-((4-(4-((1-(8-(2,4-dioxotetrahydropyrimidin-1(2H)-yl)-2,3-dihydrobenzo[b][1,4]dioxan-5-yl)piperidin-4-yl)methyl)piperazin-1-yl)-3-fluorophenyl)amino)-3-(3-(3-methyl-2-oxoimidazolidin-1-yl)piperidin-1-yl)-1,2,4-triazin-6-carboxamide]	< 1
NC(=O)c1nnc(N2CC3CC(N4CCN(C5CCCC5)C4=O)C2C3)nc1Nc1ccc(C2CCN(CC3CCN(c4ccc5c(c4)C(=O)N(C4CCC(=O)NC4=O)C5=O)CC3)CC2)cc1 (centres unmarked) [Compound 072, 3-(6-(3-cyclopentyl-2-oxoimidazolin-1-yl)-2-azabicyclo[2.2.1]heptan-2-yl)-5-((4-(1-((1-(2-(2,6-dioxopiperidin-3-yl)-1,3-dioxoisoindol-5-yl)piperidin-4-yl)methyl)piperidin-4-yl)phenyl)amino)-1,2,4-triazin-6-carboxamide]	< 1
NC(=O)c1nnc(N2CCCC(N3CCN(C4CCCCC4)C3=O)C2)nc1Nc1ccc(C2CCN(CC3CCN(c4ccc5c(c4)C(=O)N(C4CCC(=O)NC4=O)C5=O)CC3)CC2)cc1 (centres unmarked) [Compound 061, 3-(3-(3-cyclohexyl-2-oxoimidazolin-1-yl)piperidin-1-yl)-5-((4-(1-((1-(2-(2,6-dioxopiperidin-3-yl)-1,3-dioxoisoindol-5-yl)piperidin-4-yl)methyl)piperidin-4-yl)phenyl)amino)-1,2,4-triazin-6-carboxamide]	< 1
CC1(c2ccc(Nc3nc(N4CCCC(N5CCN(C6CCCC6)C5=O)C4)cnc3C(N)=O)cc2)CCN(C2CN(c3cccc4c3C(=O)N(C3CCC(=O)NC3=O)C4=O)C2)CC1 (centres unmarked) [Compound 020, 5-(3-(3-cyclopentyl-2-oxoimidazolin-1-yl)piperidin-1-yl)-3-((4-(1-(1-(2-(2,6-dioxopiperidin-3-yl)-1,3-dioxoisoindol-4-yl)azetidin-3-yl)-4-methylpiperidin-4-yl)phenyl)amino)pyrazin-2-carboxamide]	< 1
NC(=O)c1ncc(N2CCCC(N3CCN(C4COC4)C3=O)C2)nc1Nc1ccc(N2CCC3(CC2)CC(N2CCN(c4ccc5c(c4)C(=O)N(C4CCC(=O)NC4=O)C5=O)CC2)C3)cc1 (centres unmarked) [Compound 019]	> 1
NC(=O)c1nnc(N2CCCC(N3CCN(c4ccccc4)C3=O)C2)nc1Nc1ccc(N2CCC(N3CCN(CC#Cc4ccc5c(c4)CN(C4CCC(=O)NC4=O)C5=O)CC3)CC2)cc1 (centres unmarked) [Compound 097]	> 1
CN1CCN(C2CCCN(c3nnc(C(N)=O)c(Nc4ccc(C5CCN(CC6CCN(c7ccc8c(c7)CN(C7CCC(=O)NC7=O)C8=O)CC6)CC5)cc4)n3)C2)C1=O (centres unmarked) [Compound 087, 5-((4-(1-((1-(2-(2,6-dioxopiperidin-3-yl)-1-oxoisooctyl-5-yl)piperidin-4-yl)methyl)piperidin-4-yl)phenyl)amino)-3-(3-(3-methyl-2-oxyimidazolin-1-yl)piperidin-1-yl)-1,2,4-triazin-6-carboxamide]	< 1
